The conditions of data set [1]: phase II, cited from earlier work.
Data set [2] concerns the target T1, CETP (Homo sapiens, UniProt P11597).
T1 construct: host or cells: trial subjects' plasma (not described)
T1 sequence (P11597 18-493): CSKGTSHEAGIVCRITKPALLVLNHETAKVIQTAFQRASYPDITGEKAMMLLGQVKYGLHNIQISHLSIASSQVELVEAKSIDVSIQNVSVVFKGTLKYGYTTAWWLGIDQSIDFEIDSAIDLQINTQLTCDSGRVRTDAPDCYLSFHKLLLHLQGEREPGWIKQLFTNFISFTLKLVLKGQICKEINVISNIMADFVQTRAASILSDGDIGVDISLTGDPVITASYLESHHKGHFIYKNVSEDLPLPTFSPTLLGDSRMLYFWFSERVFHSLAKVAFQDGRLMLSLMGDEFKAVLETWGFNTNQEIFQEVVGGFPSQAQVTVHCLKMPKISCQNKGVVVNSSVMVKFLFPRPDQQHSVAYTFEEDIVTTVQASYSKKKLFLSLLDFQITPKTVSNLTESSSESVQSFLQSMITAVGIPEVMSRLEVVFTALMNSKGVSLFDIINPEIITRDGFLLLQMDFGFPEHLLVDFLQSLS
The conditions noted are these: phase II, group with the highest dose; cited from earlier work.

For data set [3] the following is noted: phase III, treatment group receiving combination with atorvastatin; cited from earlier work.
The target in data set [4] is C-terminus peptide of CETP (Homo sapiens, UniProt P11597).
The conditions of data set [5]: pH 9.5.
Data set [6] has as its target 10 nm-diameter nascent discoid HDL particles. The conditions noted are these: cited from earlier work.

Like-named read-outs stand apart in the source and are kept apart here. Where no end group is shown, it is not given here.

A word on the Kd: it is the constant that tells how readily two partners part at equilibrium.

As to `COc1cc(F)c(C(C)C)cc1-c1ccc(C(F)(F)F)cc1CN1C(=O)O[C@H](c2cc(C(F)(F)F)cc(C(F)(F)F)c2)[C@@H]1C` [Anacetrapib], the blood pressure result in data set [1] (all cohorts) is on record as “without the corresponding increase in blood pressure”. Further, the “increase in HDL, average” value in data set [1] (dose 10 mg) is given as 44%; in data set [1] (dose 40 mg) it was 86%; in data set [1] (dose 150 mg), 139%; in data set [1] (dose 300 mg), 133%. In the case of `CCC(CC)CC1(C(=O)Nc2ccccc2SC(=O)C(C)C)CCCCC1` [Dalcetrapib], in data set [2], the CETP activity decreased was 36% and the HDL cholesterol increased was 34%.

Regarding `CCOC(=O)N1c2ccc(C(F)(F)F)cc2[C@@H](N(Cc2cc(C(F)(F)F)cc(C(F)(F)F)c2)C(=O)OC)C[C@H]1CC` [Torcetrapib], in data set [3], the “mortality and cardiovascular events” value is “cases of mortality and cardiovascular events”. On to `CCCCCCCCCCCC(=O)OC[C@@H](O)COP(=O)([O-])OCC[N+](C)(C)C` [lysophosphatidylcholine (C12), 1-Lauril-2-Hydroxi-snglycero 3 phosphocholine], for which the “secondary structure of the antigen peptide” value in data set [4] is recorded as “favored the presentation of the α-helix structure”. Turning to CHLLVDFLQSLS [Y-helix], in data set [5], the “solubility and monomeric state of peptide” value is “allows solubility and keeps the peptide in monomeric state”.

B1: CETP: proatherogenic hydrophobic glycoprotein that transfers cholesteryl esters and triglycerides among lipoproteins (protein, UniProt P11597 18-493, looked up)
Cholesteryl ester transfer …: T1 sequence (P11597 18-493)
Take B1: the Kd in data set [6] was 20 to 120 nM.

The values above are taken from US9539312B2 (UNIVERSIDAD NACIONAL AUTÓNOMA DE MÉXICO, priority 2012, dated 2017).
